According to patent US20150099800A1, “NOVEL LIPASE INHIBITORS, REPORTER SUBSTRATES AND USES THEREOF” (Northeastern University, priority 2012, published 2015):

Tests used:
[1] = test system: Lipoprotein Lipase (Bacterial); type: biochemical, Pseudomonas sp.; settings: 10 μM
[2] = molecular target: T1, Pancreatic Lipase (Porcine) (Sus scrofa, UniProt P00591); type: biochemical; settings: read-out: Pancreatic Lipase (Porcine) inhibition at 10 μM (%)
T1 construct: purchased Sigma L3126
T1 sequence (P00591 1-450): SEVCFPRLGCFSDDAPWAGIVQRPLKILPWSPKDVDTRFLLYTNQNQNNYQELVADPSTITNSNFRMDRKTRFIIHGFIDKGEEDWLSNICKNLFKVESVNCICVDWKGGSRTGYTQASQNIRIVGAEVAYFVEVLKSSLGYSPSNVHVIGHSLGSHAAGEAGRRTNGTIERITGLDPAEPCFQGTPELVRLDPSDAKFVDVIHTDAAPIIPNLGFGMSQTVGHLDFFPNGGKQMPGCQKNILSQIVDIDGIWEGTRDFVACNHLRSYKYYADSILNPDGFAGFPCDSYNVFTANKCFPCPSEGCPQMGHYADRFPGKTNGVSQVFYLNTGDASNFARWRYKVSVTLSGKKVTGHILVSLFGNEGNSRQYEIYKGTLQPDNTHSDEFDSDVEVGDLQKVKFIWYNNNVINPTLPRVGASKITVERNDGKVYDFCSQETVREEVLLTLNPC

SMILES | Lipoprotein Lipase (Bacterial) inhibition at 10 μM (%) [1] [%] | inhibition at 10 µM [2] [%]
CCCCCCC[C@H]1OC(=O)[C@H]1CCCCCC (relative stereo) [Compound 11, cis-3-Hexyl-4-heptyloxetan-2-one] | 33 | –
CCCCCCCCCCCCCC1CC(=O)O1 (racemic) [Compound 9, 4-Tridecyloxetan-2-one] | <0 | 36
